Tests used:
Format in all cases: in vivo
[1] = system: green foxtail (Setaria viridis, SETVI); assay: Post-emerge test, greenhouse herbicide activity screening; conditions: post-emerge, 14 days after application, rating scale 0-100
In short: (§1)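 Applied at 15–1000 g ai/ha from acetone in 187 l/ha spray volume. Post-emergence applications included 0.25% v/v non-ionic surfactant and reached plants sown 8–21 days before. Pre-emergence applications were incorporated by surface watering. Efficacy or crop damage was rated on a 0–100 scale after 14 days.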

[2] = system: ivyleaf morningglory (Ipomoea hederacea, IPOHE); assay: as above; conditions: post-emerge, 14 days after application, rating scale 0-100
In short: as §1

[3] = system: sicklepod (Cassia obtusifolia, CASOB); assay: as above; conditions: post-emerge, 14 days after application, rating scale 0-100
In short: as §1

[4] = system: barnyardgrass (Echinochloa crus-galli, ECHCG); assay: as above; conditions: post-emerge, 14 days after application, rating scale 0-100
In short: as §1

[5] = system: large crabgrass (Digitaria sanguinalis, DIGSA); assay: as above; conditions: post-emerge, 14 days after application, rating scale 0-100
In short: as §1

[6] = system: velvetleaf (Abutilon theophrasti, ABUTH); assay: as above; conditions: post-emerge, 14 days after application, rating scale 0-100
In short: as §1

[7] = system: redroot pigweed (Amaranthus retroflexus, AMARE); assay: as above; conditions: post-emerge, 14 days after application, rating scale 0-100
In short: as §1

[8] = system: johnsongrass (Sorghum halepense, SORHA); assay: as above; conditions: post-emerge, 14 days after application, rating scale 0-100
In short: as §1

[9] = system: lambsquarters (Chenopodium album, CHEAL); assay: as above; conditions: post-emerge, 14 days after application, rating scale 0-100
In short: as §1

[10] = system: green foxtail (Setaria viridis, SETVI); assay: Pre-emerge test, greenhouse herbicide activity screening; conditions: pre-emerge, 14 days after application, scale 0-100
In short: (§2)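 Compounds in acetone were track-sprayed at 187 l/ha, 15–1000 g ai/ha, onto sandy loam pots. Pre-emerge seeds were sown one day before spraying, with surface watering afterwards. Post-emerge plants were at the 2–3 leaf stage and sprayed with 0.25% v/v non-ionic surfactant. Injury was rated 0–100 at 14 days.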

[11] = system: ivyleaf morningglory (Ipomoea hederacea, IPOHE); assay: as above; conditions: pre-emerge, 14 days after application, scale 0-100
In short: as §2

[12] = system: sicklepod (Cassia obtusifolia, CASOB); assay: as above; conditions: pre-emerge, 14 days after application, scale 0-100
In short: as §2

[13] = system: barnyardgrass (Echinochloa crus-galli, ECHCG); assay: as above; conditions: pre-emerge, 14 days after application, scale 0-100
In short: as §2

[14] = system: large crabgrass (Digitaria sanguinalis, DIGSA); assay: as above; conditions: pre-emerge, 14 days after application, scale 0-100
In short: as §2

[15] = system: velvetleaf (Abutilon theophrasti, ABUTH); assay: as above; conditions: pre-emerge, 14 days after application, scale 0-100
In short: as §2

[16] = system: johnsongrass (Sorghum halepense, SORHA); assay: as above; conditions: pre-emerge, 14 days after application, scale 0-100
In short: as §2

[17] = system: lambsquarters (Chenopodium album, CHEAL); assay: as above; conditions: pre-emerge, 14 days after application, scale 0-100
In short: as §2

[18] = system: upland rice (Oryza sp., var. Tebonnet, RICE); assay: Post-emerge test, crop safety; conditions: post-emerge, 14 days after application, rating scale 0-100
In short: as §2

[19] = system: field corn (Zea mays L., var. Dekalb 535, CORN); assay: Post-emerge test, crop safety; conditions: post-emerge, 14 days after application, rating scale 0-100
In short: as §2

[20] = system: redroot pigweed (Amaranthus retroflexus, AMARE); assay: Pre-emerge test, greenhouse herbicide activity screening; conditions: pre-emerge, 14 days after application, scale 0-100
In short: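 Sandy loam pots; pre-emerge: sown 1 d pre-spray, surface-watered after, then bottom-watered. Post-emerge: sown 8–21 d before, 2–3 leaf stage, + 0.25% v/v NIS, bottom-watered. Acetone, 187 l/ha track spray, 15–1000 g ai/ha. 0–100 injury score, day 14.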

[21] = system: upland rice (Oryza sp., var. Tebonnet, RICE); assay: Pre-emerge test, crop safety; conditions: pre-emerge, 14 days after application, scale 0-100
In short: as §1

[22] = system: field corn (Zea mays L., var. Dekalb 535, CORN); assay: Pre-emerge test, crop safety; conditions: pre-emerge, 14 days after application, scale 0-100
In short: as §1

## COc1c(Br)cc(F)c(-n2c(=O)cc(C(F)(F)F)n(C)c2=O)c1N(C(=O)C=Cc1ccccc1)C(=O)C=Cc1ccccc1 [2-176]
[1]; 63 g ai/ha
  SETVI phytotoxicity rating: 0
[1]; 250 g ai/ha
  SETVI phytotoxicity rating: 0
[2]; 63 g ai/ha
  IPOHE phytotoxicity rating: 70
[2]; 250 g ai/ha
  IPOHE phytotoxicity rating: 95
[3]; 63 g ai/ha
  CASOB phytotoxicity rating: 10
[3]; 250 g ai/ha
  CASOB phytotoxicity rating: 30
[4]; 63 g ai/ha
  ECHCG phytotoxicity rating: 0
[4]; 250 g ai/ha
  ECHCG phytotoxicity rating: 0
[5]; 63 g ai/ha
  DIGSA phytotoxicity rating: 0
[5]; 250 g ai/ha
  DIGSA phytotoxicity rating: 0
[6]; 63 g ai/ha
  ABUTH phytotoxicity rating: 50
[6]; 250 g ai/ha
  ABUTH phytotoxicity rating: 90
[7]; 63 g ai/ha
  AMARE phytotoxicity rating: 100
[7]; 250 g ai/ha
  AMARE phytotoxicity rating: 100
[8]; 63 g ai/ha
  SORHA phytotoxicity rating: 0
[8]; 250 g ai/ha
  SORHA phytotoxicity rating: 0
[9]; 63 g ai/ha
  CHEAL phytotoxicity rating: 80
[9]; 250 g ai/ha
  CHEAL phytotoxicity rating: 90
[10]; 63 g ai/ha
  phytotoxicity rating SETVI: 0
[10]; 250 g ai/ha
  phytotoxicity rating SETVI: 20
[11]; 63 g ai/ha
  phytotoxicity rating IPOHE: 0
[11]; 250 g ai/ha
  phytotoxicity rating IPOHE: 40
[12]; 63 g ai/ha
  phytotoxicity rating CASOB: 0
[12]; 250 g ai/ha
  phytotoxicity rating CASOB: 0
[13]; 63 g ai/ha
  phytotoxicity rating ECHCG: 0
[13]; 250 g ai/ha
  phytotoxicity rating ECHCG: 0
[14]; 63 g ai/ha
  phytotoxicity rating DIGSA: 0
[14]; 250 g ai/ha
  phytotoxicity rating DIGSA: 20
[15]; 63 g ai/ha
  phytotoxicity rating ABUTH: 0
[15]; 250 g ai/ha
  phytotoxicity rating ABUTH: 70
[16]; 63 g ai/ha
  phytotoxicity rating SORHA: 0
[16]; 250 g ai/ha
  phytotoxicity rating SORHA: 0
[17]; 63 g ai/ha
  phytotoxicity rating CHEAL: 90
[17]; 250 g ai/ha
  phytotoxicity rating CHEAL: 100
[18]; 63 g ai/ha
  RICE phytotoxicity rating (crop damage): 10
[18]; 250 g ai/ha
  RICE phytotoxicity rating (crop damage): 30
[19]; 63 g ai/ha
  CORN phytotoxicity rating (crop damage): 0
[19]; 250 g ai/ha
  CORN phytotoxicity rating (crop damage): 5
[20]; 63 g ai/ha
  phytotoxicity rating AMARE: 50
[20]; 250 g ai/ha
  phytotoxicity rating AMARE: 90
[21]; 63 g ai/ha
  phytotoxicity rating RICE (crop damage): 0
[21]; 250 g ai/ha
  phytotoxicity rating RICE (crop damage): 0
[22]; 63 g ai/ha
  phytotoxicity rating CORN (crop damage): 0
[22]; 250 g ai/ha
  phytotoxicity rating CORN (crop damage): 0

## COc1c(Br)cc(F)c(-n2c(=O)cc(C(F)(F)F)n(C)c2=O)c1NC(=O)C=Cc1ccccc1 [2-177]
[1]; 63 g ai/ha
  SETVI phytotoxicity rating: 45
[1]; 250 g ai/ha
  SETVI phytotoxicity rating: 60
[2]; 63 g ai/ha
  IPOHE phytotoxicity rating: 100
[2]; 250 g ai/ha
  IPOHE phytotoxicity rating: 100
[3]; 63 g ai/ha
  CASOB phytotoxicity rating: 100
[3]; 250 g ai/ha
  CASOB phytotoxicity rating: 100
[4]; 63 g ai/ha
  ECHCG phytotoxicity rating: 20
[4]; 250 g ai/ha
  ECHCG phytotoxicity rating: 40
[5]; 63 g ai/ha
  DIGSA phytotoxicity rating: 30
[5]; 250 g ai/ha
  DIGSA phytotoxicity rating: 50
[6]; 63 g ai/ha
  ABUTH phytotoxicity rating: 100
[6]; 250 g ai/ha
  ABUTH phytotoxicity rating: 100
[7]; 63 g ai/ha
  AMARE phytotoxicity rating: 100
[7]; 250 g ai/ha
  AMARE phytotoxicity rating: 100
[8]; 63 g ai/ha
  SORHA phytotoxicity rating: 30
[8]; 250 g ai/ha
  SORHA phytotoxicity rating: 40
[9]; 63 g ai/ha
  CHEAL phytotoxicity rating: 100
[9]; 250 g ai/ha
  CHEAL phytotoxicity rating: 100
[10]; 63 g ai/ha
  phytotoxicity rating SETVI: 40
[10]; 250 g ai/ha
  phytotoxicity rating SETVI: 70
[11]; 63 g ai/ha
  phytotoxicity rating IPOHE: 40
[11]; 250 g ai/ha
  phytotoxicity rating IPOHE: 90
[12]; 63 g ai/ha
  phytotoxicity rating CASOB: 0
[12]; 250 g ai/ha
  phytotoxicity rating CASOB: 40
[13]; 63 g ai/ha
  phytotoxicity rating ECHCG: 0
[13]; 250 g ai/ha
  phytotoxicity rating ECHCG: 40
[14]; 63 g ai/ha
  phytotoxicity rating DIGSA: 30
[14]; 250 g ai/ha
  phytotoxicity rating DIGSA: 70
[15]; 63 g ai/ha
  phytotoxicity rating ABUTH: 70
[15]; 250 g ai/ha
  phytotoxicity rating ABUTH: 100
[16]; 63 g ai/ha
  phytotoxicity rating SORHA: 0
[16]; 250 g ai/ha
  phytotoxicity rating SORHA: 30
[17]; 63 g ai/ha
  phytotoxicity rating CHEAL: 100
[17]; 250 g ai/ha
  phytotoxicity rating CHEAL: 100
[18]; 63 g ai/ha
  RICE phytotoxicity rating (crop damage): 50
[18]; 250 g ai/ha
  RICE phytotoxicity rating (crop damage): 60
[19]; 63 g ai/ha
  CORN phytotoxicity rating (crop damage): 15
[19]; 250 g ai/ha
  CORN phytotoxicity rating (crop damage): 20
[20]; 63 g ai/ha
  phytotoxicity rating AMARE: 100
[20]; 250 g ai/ha
  phytotoxicity rating AMARE: 100
[21]; 63 g ai/ha
  phytotoxicity rating RICE (crop damage): 10
[21]; 250 g ai/ha
  phytotoxicity rating RICE (crop damage): 20
[22]; 63 g ai/ha
  phytotoxicity rating CORN (crop damage): 0
[22]; 250 g ai/ha
  phytotoxicity rating CORN (crop damage): 10
